Assay results: US11977075B2, “Method of predicting personalized response to cancer treatment with immune checkpoint inhibitors, method of treating cancer, and kit therefor” (Rappaport Family Institute for Research in the Medical …, priority 2017, dated 2024)

How the values were obtained:
[1] = test system: EMT6 murine breast carcinoma; experiment: EMT6 primary breast tumor model, ICI combined with SB-3CT; format: in vivo, BALB/c mice; conditions: combination with either anti-PD-1 or anti-PD-L1 vs anti-PD-1 or anti-PD-L1 monotherapy
Protocol: Control mice are injected with IgG antibody and vehicle (10% DMSO in normal saline). Mice receiving either anti-PD-1 or anti-PD-L1 monotherapies are also injected with vehicle (10% DMSO in normal saline). Mice receiving SB3-CT monotherapy are also injected with IgG control antibodies. Tumor growth and mouse survival are monitored. At endpoint (when tumors reach a size of ˜1500 mm^3), mice are sacrificed.

cancer patients = conditions: pooled data from clinical studies; cited from earlier work

Compound | increasing survival [1] | reducing tumor size [1] | duration of clinical response (cancer patients) | duration of clinical response, can last up to (cancer patients) | subset of patients in which the therapeutic effect is observed (cancer patients) [%]
O=S(=O)(CC1CS1)c1ccc(Oc2ccccc2)cc1 (centres unmarked) [SB-3CT, 2-(((4-phenoxyphenyl)sulfonyl)methyl)thiirane] | more effective | more effective |  |  | 
ipilimumab |  |  | around 3 years | up to 10 years | ~20
